Reference: PubChem BioAssay AID274 (DTP/NCI, 2004)
“And” between values parts separate entries of the source, which are not always exact repeats. Identical values can stand only once. Toxic doses and inconclusive results are not listed. Rule for the calls: active = survival T/C of 150% or more; inactive = T/C below 125% in these data.

System: BDF1 mice, Lewis lung carcinoma iv, survival T/C
Assay: NCI In Vivo Anticancer Drug Screen. Data for tumor model Lewis Lung Carcinoma (intravenous) in B6D2F1 (BDF1) mice
Details: endpoint: median survival time, higher = longer survival
Procedure: The antitumor activity of compounds was measured in mice bearing transplantable tumors. Survival or tumor size were measured and the results are expressed as the measurement made in the treated group (T) divided by the measurement made in the vehicle treated control group (C). The tumor model used in this assay is Lewis Lung Carcinoma (intravenous) in B6D2F1 (BDF1) mice

[1] = dose: 12.5 mg/kg/injection, schedule: Q01DX009 (ip), vehicle: water
[2] = dose: 25.0 mg/kg/injection, schedule: Q01DX009 (ip), vehicle: water
[3] = dose: 50.0 mg/kg/injection, schedule: Q01DX009 (ip), vehicle: water
[4] = dose: 100.0 mg/kg/injection, schedule: Q01DX009 (ip), vehicle: saline
[5] = dose: 100.0 mg/kg/injection, schedule: Q01DX009 (ip), vehicle: water
[6] = dose: 200.0 mg/kg/injection, schedule: Q01DX009 (ip), vehicle: saline
[7] = dose: 200.0 mg/kg/injection, schedule: Q01DX009 (ip), vehicle: water
[8] = dose: 400.0 mg/kg/injection, schedule: Q01DX009 (ip), vehicle: saline
[9] = dose: 12.5 mg/kg/injection, schedule: Q01DX009 (ip), vehicle: saline
[10] = dose: 25.0 mg/kg/injection, schedule: Q01DX009 (ip), vehicle: saline
[11] = dose: 50.0 mg/kg/injection, schedule: Q01DX009 (ip), vehicle: saline
[12] = dose: 12.5 mg/kg/injection, schedule: Q01DX009 (ip), vehicle: saline with Tween-80
[13] = dose: 25.0 mg/kg/injection, schedule: Q01DX009 (ip), vehicle: saline with Tween-80
[14] = dose: 50.0 mg/kg/injection, schedule: Q01DX009 (ip), vehicle: saline with Tween-80

Measured: T/C

CC(=O)OC/C=C(C)/C=C/C=C(C)/C=C/C1=C(C)CCCC1(C)C
inactive: dose: 6.25 mg/kg/injection, schedule: Q01DX005 (ip), vehicle: saline with Tween-80 115 % of control | dose: 12.5 mg/kg/injection, schedule: Q01DX005 (ip), vehicle: saline with Tween-80 91 % of control | dose: 25.0 mg/kg/injection, schedule: Q01DX005 (ip), vehicle: saline with Tween-80 97 % of control | dose: 50.0 mg/kg/injection, schedule: Q01DX005 (ip), vehicle: saline with Tween-80 97 % of control | dose: 100.0 mg/kg/injection, schedule: Q01DX005 (ip), vehicle: saline with Tween-80 98 % of control | dose: 200.0 mg/kg/injection, schedule: Q01DX005 (ip), vehicle: saline with Tween-80 104 % of control

CN1N=C(N)c2cn(C3OC(COP(=O)(O)O)C(O)C3O)c3ncnc1c23 (centres undefined)
inactive: dose: 0.39 mg/kg/injection, schedule: Q01DX009 (ip), vehicle: water 100 % of control | dose: 0.78 mg/kg/injection, schedule: Q01DX009 (ip), vehicle: water 92 % of control | dose: 1.56 mg/kg/injection, schedule: Q01DX009 (ip), vehicle: water 86 % of control | dose: 3.12 mg/kg/injection, schedule: Q01DX009 (ip), vehicle: water 93 % of control | dose: 6.25 mg/kg/injection, schedule: Q01DX009 (ip), vehicle: water 99 % of control | [1] 99 % of control

COc1cccc2c1C(=O)c1c(O)c3c(c(O)c1C2=O)CC(O)(/C(C)=N/NC(=O)CCC(=O)N/N=C(\C)C1(O)Cc2c(O)c4c(c(O)c2C(OC2CC(N)C(O)C(C)O2)C1)C(=O)c1c(OC)cccc1C4=O)CC3OC1CC(N)C(O)C(C)O1 (centres undefined)
inactive: dose: 1.5 mg/kg/injection, schedule: Q01DX009 (ip), vehicle: water 96 % of control | dose: 3.0 mg/kg/injection, schedule: Q01DX009 (ip), vehicle: water 108 % of control | dose: 6.0 mg/kg/injection, schedule: Q01DX009 (ip), vehicle: water 101 % of control | dose: 12.0 mg/kg/injection, schedule: Q01DX009 (ip), vehicle: water 123 % of control

Nc1ncnc2c1ncn2C1OC(COP(=O)(O)O)C(O)C1O (centres undefined)
inactive: [1] 104 % of control | [2] 112 % of control | [3] 100 % of control | [4] 97 % of control | [5] 103 % of control | [6] 118 % of control | [7] 100 % of control | [8] 96 % of control | dose: 800.0 mg/kg/injection, schedule: Q01DX009 (ip), vehicle: saline 108 % of control

CCCCCC(O)C1C(=O)OC(C)C(O)/C=C/C=C/C=C/C=C\C=C(\C)C(O)CC(O)CC(O)CC(O)CC(O)CC(O)CC1O (centres undefined)
inactive: dose: 3.12 mg/kg/injection, schedule: Q01DX009 (ip), vehicle: distilled water + alcohol 103 % of control | dose: 6.25 mg/kg/injection, schedule: Q01DX009 (ip), vehicle: distilled water + alcohol 96 % of control | dose: 12.5 mg/kg/injection, schedule: Q01DX009 (ip), vehicle: distilled water + alcohol 106 % of control | dose: 25.0 mg/kg/injection, schedule: Q01DX009 (ip), vehicle: distilled water + alcohol 96 % of control

C[Si](C)(C)O/C=C1/CCOC1=O
inactive: [9] 116 % of control | [10] 101 % of control | [11] 107 % of control | [4] 108 % of control | [6] 93 % of control | [8] 99 % of control

CCC(C(=O)O)C(=O)O.[NH-]CC1CCCC[N-]1.[Pt+2]
inactive: [10] 98 % of control and 100 % of control | [11] 100 % of control

CN(C)CCNc1ccc([N+](=O)[O-])c2sc3ccccc3c(=O)c12
inactive: dose: 6.25 mg/kg/injection, schedule: Q01DX009 (ip), vehicle: saline with Tween-80 106 % of control | [12] 109 % of control and 112 % of control | [13] 104 % of control
active: [14] 153 % of control

O=NN(CCCl)C(=O)NC1CCC(=O)NC1=O (centres undefined)
active: dose: 2.0 mg/kg/injection, schedule: Q01DX009 (ip), vehicle: saline with Tween-80 185 % of control | dose: 4.0 mg/kg/injection, schedule: Q01DX009 (ip), vehicle: saline with Tween-80 247 % of control
inactive: dose: 0.5 mg/kg/injection, schedule: Q01DX009 (ip), vehicle: saline with Tween-80 115 % of control | dose: 1.0 mg/kg/injection, schedule: Q01DX009 (ip), vehicle: saline with Tween-80 103 % of control | dose: 8.0 mg/kg/injection, schedule: Q01DX009 (ip), vehicle: saline with Tween-80 104 % of control

COCC(O)Cn1ccnc1[N+](=O)[O-] (centres undefined)
inactive: [1] 96 % of control | [2] 92 % of control | [3] 96 % of control | [5] 100 % of control | [7] 92 % of control | dose: 400.0 mg/kg/injection, schedule: Q01DX009 (ip), vehicle: water 96 % of control

N=c1ccn2c(n1)OC1C(O)C(CO)OC12 (centres undefined)
inactive: [10] 104 % of control | dose: 37.5 mg/kg/injection, schedule: Q01DX009 (ip), vehicle: saline 108 % of control | dose: 75.0 mg/kg/injection, schedule: Q01DX009 (ip), vehicle: saline 106 % of control | [4] 112 % of control | dose: 150.0 mg/kg/injection, schedule: Q01DX009 (ip), vehicle: saline 119 % of control | dose: 300.0 mg/kg/injection, schedule: Q01DX009 (ip), vehicle: saline 104 % of control | dose: 600.0 mg/kg/injection, schedule: Q01DX009 (ip), vehicle: saline 92 % of control

O=C1C=CC(=Nc2ccc3c(c2)C(Br)c2ccccc2-3)O1 (centres undefined)
inactive: dose: 5.0 mg/kg/injection, schedule: Q01DX009 (ip), vehicle: saline with Tween-80 115 % of control | dose: 10.0 mg/kg/injection, schedule: Q01DX009 (ip), vehicle: saline with Tween-80 111 % of control | dose: 20.0 mg/kg/injection, schedule: Q01DX009 (ip), vehicle: saline with Tween-80 112 % of control

OCCOCCN1CCN(CCCN2c3ccccc3Sc3ccc(C(F)(F)F)cc32)CC1
inactive: dose: 1.56 mg/kg/injection, schedule: Q01DX009 (ip), vehicle: saline 110 % of control | dose: 3.12 mg/kg/injection, schedule: Q01DX009 (ip), vehicle: saline 105 % of control | dose: 6.25 mg/kg/injection, schedule: Q01DX009 (ip), vehicle: saline 102 % of control | [9] 123 % of control

CC1(C)COCN1COC1CCCCC1
inactive: [9] 112 % of control and 118 % of control | [10] 98 % of control and 111 % of control | [11] 97 % of control and 115 % of control | [4] 95 % of control and 99 % of control

CC12C(=O)C=CCC1=CCC1C2CCC2(O)C(=O)OC3(C)C4CC5(C)C(COC16OC23C5C6=O)C(=O)O4 (centres undefined)
inactive: dose: 25.0 mg/kg/injection, schedule: Q01DX009 (ip), vehicle: Klucel (hydroxypropylcellulose) (HPC) 101 % of control | dose: 50.0 mg/kg/injection, schedule: Q01DX009 (ip), vehicle: Klucel (hydroxypropylcellulose) (HPC) 100 % of control | dose: 100.0 mg/kg/injection, schedule: Q01DX009 (ip), vehicle: Klucel (hydroxypropylcellulose) (HPC) 105 % of control

O=C(Nc1nncs1)c1cccs1
inactive: [12] 95 % of control | [13] 104 % of control | [14] 92 % of control | dose: 100.0 mg/kg/injection, schedule: Q01DX009 (ip), vehicle: saline with Tween-80 94 % of control | dose: 200.0 mg/kg/injection, schedule: Q01DX009 (ip), vehicle: saline with Tween-80 98 % of control | dose: 400.0 mg/kg/injection, schedule: Q01DX009 (ip), vehicle: saline with Tween-80 95 % of control
